In publication PMC3698094, “Similarly Potent Inhibition of Adenylyl Cyclase by P-Site Inhibitors in Hearts from Wild Type and AC5 Knockout Mice” (PLoS ONE, 2013) one finds EC50 and IC50 data, which are given here for four compounds.

The structures appear in SMILES notation. pEC50, pIC50: −log10 of the molar value.

What all share (assay): radiochemical AC activity assay, […]cAMP from [α-32P]ATP, Sf9 membranes
Holding throughout (assay type): biochemical

Experiment [1] concerns the target T1, AC1 (recombinant) (Bos taurus, UniProt P19754).
T1 construct: gene ADCY1; recombinant membranous AC1 expressed by baculovirus in Sf9 cells; crude Sf9 membranes
The conditions noted are these: read-out: RecombinantACs / AC1.

In experiment [2] the target is T2, AC2 (recombinant) (Rattus norvegicus, UniProt P26769).
T2 construct: gene Adcy2; recombinant membranous AC2 expressed by baculovirus in Sf9 cells; crude Sf9 membranes
The conditions noted are these: read-out: RecombinantACs / AC2.

Experiment [3] has as its target T3, AC5 (recombinant) (Canis lupus, UniProt P30803).
T3 construct: gene ADCY5; recombinant membranous AC5 expressed by baculovirus in Sf9 cells; crude Sf9 membranes
The conditions noted are these: read-out: RecombinantACs / AC5.

Experiment [4] has as its target T2, AC2 (recombinant). The conditions noted are these: read-out: Recombinant ACs / AC2.
The target of experiment [5] is T3, AC5 (recombinant). The conditions noted are these: read-out: Recombinant ACs / AC5.
In experiment [6] the target is T1, AC1 (recombinant). The conditions noted are these: read-out: Recombinant ACs / AC1.

T2 sequence (P26769 whole entry): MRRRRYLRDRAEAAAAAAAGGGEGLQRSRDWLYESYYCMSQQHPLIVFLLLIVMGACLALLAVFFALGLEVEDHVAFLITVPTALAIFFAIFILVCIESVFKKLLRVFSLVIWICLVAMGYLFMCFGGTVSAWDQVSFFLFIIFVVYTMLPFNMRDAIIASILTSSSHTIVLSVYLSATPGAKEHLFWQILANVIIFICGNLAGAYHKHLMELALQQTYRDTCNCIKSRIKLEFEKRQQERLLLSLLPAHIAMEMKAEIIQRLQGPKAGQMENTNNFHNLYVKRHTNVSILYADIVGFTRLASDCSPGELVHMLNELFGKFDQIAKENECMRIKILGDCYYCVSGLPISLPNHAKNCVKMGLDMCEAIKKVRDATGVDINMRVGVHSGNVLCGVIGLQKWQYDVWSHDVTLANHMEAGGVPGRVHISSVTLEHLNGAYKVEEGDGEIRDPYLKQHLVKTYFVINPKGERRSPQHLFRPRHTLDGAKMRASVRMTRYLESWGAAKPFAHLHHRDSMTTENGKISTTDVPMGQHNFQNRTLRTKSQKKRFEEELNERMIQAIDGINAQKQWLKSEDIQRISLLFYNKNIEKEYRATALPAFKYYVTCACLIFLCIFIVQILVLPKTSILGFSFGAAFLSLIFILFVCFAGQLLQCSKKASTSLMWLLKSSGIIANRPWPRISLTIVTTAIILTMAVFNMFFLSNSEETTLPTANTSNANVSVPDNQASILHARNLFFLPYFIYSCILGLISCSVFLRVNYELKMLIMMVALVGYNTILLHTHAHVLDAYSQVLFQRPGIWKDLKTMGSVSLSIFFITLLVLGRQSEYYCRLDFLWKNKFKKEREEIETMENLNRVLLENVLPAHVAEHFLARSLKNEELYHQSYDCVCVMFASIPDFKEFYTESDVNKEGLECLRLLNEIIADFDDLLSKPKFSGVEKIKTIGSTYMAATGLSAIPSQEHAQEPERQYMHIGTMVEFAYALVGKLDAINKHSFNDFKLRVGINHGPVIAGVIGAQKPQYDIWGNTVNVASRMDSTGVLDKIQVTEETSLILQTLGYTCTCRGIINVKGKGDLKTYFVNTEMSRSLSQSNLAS
T1 sequence (P19754 whole entry): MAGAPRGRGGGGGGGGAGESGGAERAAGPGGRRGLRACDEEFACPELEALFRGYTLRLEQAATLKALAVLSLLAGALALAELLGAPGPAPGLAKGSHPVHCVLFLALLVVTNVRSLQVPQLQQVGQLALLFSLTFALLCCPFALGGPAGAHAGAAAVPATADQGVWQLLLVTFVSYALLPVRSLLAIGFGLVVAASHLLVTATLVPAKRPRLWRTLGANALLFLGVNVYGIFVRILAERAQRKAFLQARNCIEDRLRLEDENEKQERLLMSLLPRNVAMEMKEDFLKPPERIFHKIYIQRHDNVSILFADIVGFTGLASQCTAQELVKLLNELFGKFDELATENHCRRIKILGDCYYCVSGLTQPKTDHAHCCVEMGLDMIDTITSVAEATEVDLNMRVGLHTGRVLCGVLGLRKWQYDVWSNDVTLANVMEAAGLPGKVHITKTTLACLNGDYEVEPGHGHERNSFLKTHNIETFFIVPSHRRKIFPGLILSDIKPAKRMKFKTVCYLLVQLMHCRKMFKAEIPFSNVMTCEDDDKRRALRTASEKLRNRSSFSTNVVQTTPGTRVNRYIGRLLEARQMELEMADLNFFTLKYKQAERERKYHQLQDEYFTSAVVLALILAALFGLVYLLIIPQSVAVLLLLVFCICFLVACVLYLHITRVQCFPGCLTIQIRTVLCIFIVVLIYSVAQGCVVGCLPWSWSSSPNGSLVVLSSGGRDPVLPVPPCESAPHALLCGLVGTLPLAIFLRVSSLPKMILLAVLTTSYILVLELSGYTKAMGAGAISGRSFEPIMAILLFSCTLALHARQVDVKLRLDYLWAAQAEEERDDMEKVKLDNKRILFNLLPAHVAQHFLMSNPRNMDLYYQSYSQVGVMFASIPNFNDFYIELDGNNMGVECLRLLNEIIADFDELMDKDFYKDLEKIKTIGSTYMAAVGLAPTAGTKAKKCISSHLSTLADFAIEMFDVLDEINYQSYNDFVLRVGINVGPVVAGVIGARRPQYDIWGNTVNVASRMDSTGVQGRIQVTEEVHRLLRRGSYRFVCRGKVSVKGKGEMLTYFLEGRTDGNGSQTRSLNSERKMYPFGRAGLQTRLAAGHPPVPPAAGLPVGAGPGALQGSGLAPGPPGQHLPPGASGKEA
T3 sequence (P30803 whole entry): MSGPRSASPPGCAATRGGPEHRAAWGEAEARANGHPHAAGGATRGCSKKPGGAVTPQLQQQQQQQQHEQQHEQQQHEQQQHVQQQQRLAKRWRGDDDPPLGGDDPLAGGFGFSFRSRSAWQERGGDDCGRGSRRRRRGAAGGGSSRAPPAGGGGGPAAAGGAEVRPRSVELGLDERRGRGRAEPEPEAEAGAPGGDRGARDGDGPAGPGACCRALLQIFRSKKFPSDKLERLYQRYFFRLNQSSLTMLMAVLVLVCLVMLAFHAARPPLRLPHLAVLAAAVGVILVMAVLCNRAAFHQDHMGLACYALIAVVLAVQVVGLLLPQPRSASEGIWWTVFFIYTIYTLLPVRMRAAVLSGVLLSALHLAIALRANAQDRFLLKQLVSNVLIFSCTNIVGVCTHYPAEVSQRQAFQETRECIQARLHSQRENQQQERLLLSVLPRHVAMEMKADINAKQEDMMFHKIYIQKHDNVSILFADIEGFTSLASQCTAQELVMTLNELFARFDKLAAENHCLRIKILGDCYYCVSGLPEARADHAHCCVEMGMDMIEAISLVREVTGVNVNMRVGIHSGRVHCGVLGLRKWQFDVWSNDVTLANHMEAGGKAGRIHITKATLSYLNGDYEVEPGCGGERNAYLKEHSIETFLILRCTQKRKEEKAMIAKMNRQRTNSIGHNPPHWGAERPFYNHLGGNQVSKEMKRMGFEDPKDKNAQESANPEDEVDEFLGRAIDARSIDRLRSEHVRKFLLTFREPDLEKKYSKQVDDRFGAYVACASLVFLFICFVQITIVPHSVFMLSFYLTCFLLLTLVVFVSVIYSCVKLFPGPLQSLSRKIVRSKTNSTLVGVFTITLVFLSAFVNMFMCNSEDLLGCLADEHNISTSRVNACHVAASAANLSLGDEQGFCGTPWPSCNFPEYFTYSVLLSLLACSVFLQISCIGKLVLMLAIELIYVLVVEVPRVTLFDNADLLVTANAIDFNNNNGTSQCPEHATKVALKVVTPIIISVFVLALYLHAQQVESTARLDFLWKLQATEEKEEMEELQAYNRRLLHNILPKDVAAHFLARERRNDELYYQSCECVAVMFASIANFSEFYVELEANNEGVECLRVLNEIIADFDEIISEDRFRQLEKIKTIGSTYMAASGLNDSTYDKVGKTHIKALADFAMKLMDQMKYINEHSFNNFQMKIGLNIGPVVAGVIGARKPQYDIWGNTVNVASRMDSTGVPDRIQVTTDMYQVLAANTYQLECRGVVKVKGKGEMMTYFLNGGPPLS

As for `C=C[C@@]1(C)CC(=O)[C@]2(O)[C@@]3(C)[C@@H](O)CCC(C)(C)[C@@H]3[C@H](O)[C@H](OC(C)=O)[C@@]2(C)O1` [Forskolin], the pEC50 was 5.64 in experiment [1], 4.87 in experiment [2] and 5.24 in experiment [3].
For the compound `Nc1ncc2c(n1)CC(c1ccco1)CC2=O` (stereo not drawn) [NKY80, 2-amino-7-(2-furanyl)-7,8-dihydro-5(6H)-quinazolinone], the values for the pIC50 in experiment [4], in experiment [5] and in experiment [6] were 2.95, 4.09 and 3.48, respectively.
As for `Nc1ncnc2c1ncn2C1CCCO1` (stereo not drawn) [SQ22,536, 9-(tetra-hydro-2-furanyl)-9H-purin-6-amine], the pIC50 was 3.42 in experiment [4], 5.02 in experiment [5] and 3.96 in experiment [6].
The corresponding values for `Nc1ncnc2c1ncn2[C@@H]1O[C@H](CO)[C@@H](O)[C@@H]1O` [vidarabine, 9-β-D-arabinosyladenine] are 3.26, 4.70 and 3.86.
